These results are taken from US11452717B2, “Small molecule activators of nicotinamide phosphoribosyltransferase (NAMPT) and uses thereof” (Sanford Burnham Prebys Medical Discovery Institute, priority 2017, dated 2022).

This test addresses NAMPT enzyme (Homo sapiens (Human), UniProt P43490). In words: Enzyme Assay and NMN Detection (NAMPT reaction, fluorescence detection of NMN). The format is biochemical. To be noted: NAMPT activation, NMN formation. Summed up:
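Reaction in 50 mM HEPES pH 7.5, 5 mM MgCl2, 0.1% Prionex, 0.005% Tween 20, 1 mM TCEP at room temperature, with 16 nM NAMPT, 120 uM ATP, 5 uM nicotinamide, 6.25 uM PRPP, 0.04 U/ml pyrophosphatase for 2 h. Stopped with acetophenone/KOH then formic acid; NMN quantified by fluorescence (ex380/em460) against calibration curve.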

Chain of NAMPT enzyme (P43490 whole entry, species assumed): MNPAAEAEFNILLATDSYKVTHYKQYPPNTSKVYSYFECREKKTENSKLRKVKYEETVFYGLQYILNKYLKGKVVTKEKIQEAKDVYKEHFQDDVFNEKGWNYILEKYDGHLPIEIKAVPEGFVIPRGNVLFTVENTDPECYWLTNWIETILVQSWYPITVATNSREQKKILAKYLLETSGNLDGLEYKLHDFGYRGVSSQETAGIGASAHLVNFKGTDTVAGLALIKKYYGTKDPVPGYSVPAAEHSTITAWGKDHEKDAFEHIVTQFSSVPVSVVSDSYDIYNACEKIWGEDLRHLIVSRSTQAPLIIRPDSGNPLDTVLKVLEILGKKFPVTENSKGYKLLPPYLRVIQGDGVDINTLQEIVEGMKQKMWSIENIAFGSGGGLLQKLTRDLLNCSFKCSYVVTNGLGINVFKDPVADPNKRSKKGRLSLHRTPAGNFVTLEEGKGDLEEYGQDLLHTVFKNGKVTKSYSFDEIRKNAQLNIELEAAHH

Where the note is “Table B-6”, `O=C(NCc1ccncc1)Nc1ccc(S(=O)(=O)c2ccccc2-c2ccc(Cl)cc2)cc1` [1-[4-(4′-Chloro-biphenyl-2-sulfonyl)-phenyl]-3-pyridin-4-ylmethyl-urea] registered an EC50 of 5000 to 20000 nM.

Regarding `O=C(NCc1cn[nH]c1)Nc1ccc(S(=O)(=O)c2ccccc2-c2ccc(F)cc2)cc1` [1-[4-(4′-Fluoro-biphenyl-2-sulfonyl)-phenyl]-3-(1H-pyrazol-4-ylmethyl)-urea], the EC50 (Table B-4) was 100 to 2000 nM.

In turn, `O=C(NCc1ccncc1)Nc1ccc(S(=O)(=O)c2ccccc2-c2ccc(F)cc2)cc1` [1-[4-(4′-Fluoro-biphenyl-2-sulfonyl)-phenyl]-3-pyridin-4-ylmethyl-urea] showed an EC50 (Table B-6) of 100 to 2000 nM.

For `COc1ccc(-c2ccccc2S(=O)(=O)c2ccc(NC(=O)NCc3cn[nH]c3)cc2)cc1` [1-[4-(4′-Methoxy-biphenyl-2-sulfonyl)-phenyl]-3-(1H-pyrazol-4-ylmethyl)-urea], for the setting “Table B-4”, the EC50 lay in the range of 5000 to 20000 nM.

Where the note is “Table B-6”, `COc1ccc(-c2ccccc2S(=O)(=O)c2ccc(NC(=O)NCc3ccncc3)cc2)cc1` [1-[4-(4′-Methoxy-biphenyl-2-sulfonyl)-phenyl]-3-pyridin-4-ylmethyl-urea] gave an EC50 of 5000 to 20000 nM.

For the setting “Table B-4”, `Cc1ccc(-c2ccccc2S(=O)(=O)c2ccc(NC(=O)NCc3cn[nH]c3)cc2)cc1` [1-[4-(4′-Methyl-biphenyl-2-sulfonyl)-phenyl]-3-(1H-pyrazol-4-ylmethyl)-urea] had an EC50 of 5000 to 20000 nM.

Take `Cc1ccc(-c2ccccc2S(=O)(=O)c2ccc(NC(=O)NCc3ccncc3)cc2)cc1` [1-[4-(4′-Methyl-biphenyl-2-sulfonyl)-phenyl]-3-pyridin-4-ylmethyl-urea]: for the setting “Table B-6”, the EC50 was in the range of 2000 to 5000 nM.

For the compound `O=C(NCc1cn[nH]c1)Nc1ccc(S(=O)(=O)c2ccc(Cl)cn2)cc1` [1-[4-(5-Chloro-pyridine-2-sulfonyl)-phenyl]-3-(1H-pyrazol-4-ylmethyl)-urea], the EC50 (Table B-4) was 100 to 2000 nM.

Turning to `O=C(NCc1cnco1)Nc1ccc(S(=O)(=O)c2ccc(Cl)cn2)cc1` [1-[4-(5-Chloro-pyridine-2-sulfonyl)-phenyl]-3-oxazol-5-ylmethyl-urea], the EC50 (Table B-5) was in the range of 2000 to 5000 nM.

As for `O=C(NCc1ccncc1)Nc1ccc(S(=O)(=O)c2ccc(Cl)cn2)cc1` [1-[4-(5-Chloro-pyridine-2-sulfonyl)-phenyl]-3-pyridin-4-ylmethyl-urea], the EC50 (Table B-6) is 100 to 2000 nM.

Take `Cn1nc(-c2ccc(NC(=O)NCc3cn[nH]c3)cc2)c2cc(F)ccc21` [1-[4-(5-Fluoro-1-methyl-1H-indazol-3-yl)-phenyl]-3-(1H-pyrazol-4-ylmethyl)-urea]: the EC50 (Table B-4) lay within 100 to 2000 nM.

Where the note is “Table B-5”, `Cn1nc(-c2ccc(NC(=O)NCc3cnco3)cc2)c2cc(F)ccc21` [1-[4-(5-Fluoro-1-methyl-1H-indazol-3-yl)-phenyl]-3-oxazol-5-ylmethyl-urea] displayed an EC50 of 2000 to 5000 nM.

Where the note is “Table B-6”, `Cn1nc(-c2ccc(NC(=O)NCc3ccncc3)cc2)c2cc(F)ccc21` [1-[4-(5-Fluoro-1-methyl-1H-indazol-3-yl)-phenyl]-3-pyridin-4-ylmethyl-urea] returned an EC50 of 100 to 2000 nM.

As to `COc1ccc2c(c1)c(-c1ccc(NC(=O)NCc3cn[nH]c3)cc1)nn2C` [1-[4-(5-Methoxy-1-methyl-1H-indazol-3-yl)-phenyl]-3-(1H-pyrazol-4-ylmethyl)-urea], under “Table B-4”, the concentration for a half-maximal effect (EC50) fell in the range of 100 to 2000 nM.

As for `COc1ccc2c(c1)c(-c1ccc(NC(=O)NCc3cnco3)cc1)nn2C` [1-[4-(5-Methoxy-1-methyl-1H-indazol-3-yl)-phenyl]-3-oxazol-5-ylmethyl-urea], where the note is “Table B-5”, the EC50 was above 20000 nM.

Consider `COc1ccc2c(c1)c(-c1ccc(NC(=O)NCc3ccncc3)cc1)nn2C` [1-[4-(5-Methoxy-1-methyl-1H-indazol-3-yl)-phenyl]-3-pyridin-4-ylmethyl-urea], for which, under “Table B-6”, the EC50 is 100 to 2000 nM.

In turn, `Cc1ccc(S(=O)(=O)c2ccc(NC(=O)NCc3cn[nH]c3)cc2)nc1` [1-[4-(5-Methyl-pyridine-2-sulfonyl)-phenyl]-3-(1H-pyrazol-4-ylmethyl)-urea] gave an EC50 (Table B-4) of 100 to 2000 nM.

Under “Table B-5”, `O=C(NCc1cnco1)Nc1ccc(S(=O)(=O)c2ccc(Cl)nc2)cc1` [1-[4-(6-Chloro-pyridine-3-sulfonyl)-phenyl]-3-oxazol-5-ylmethyl-urea] gave an EC50 of 2000 to 5000 nM.

On to `O=C(NCc1ccncc1)Nc1ccc(S(=O)(=O)c2ccc(Cl)nc2)cc1` [1-[4-(6-Chloro-pyridine-3-sulfonyl)-phenyl]-3-pyridin-4-ylmethyl-urea], for which the EC50 (Table B-6) was 100 to 2000 nM.

`O=C(NCc1cnco1)Nc1ccc(S(=O)(=O)c2ccc(O)nc2)cc1` [1-[4-(6-Hydroxy-pyridine-3-sulfonyl)-phenyl]-3-oxazol-5-ylmethyl-urea] registered an EC50 (Table B-5) of 100 to 2000 nM.

On to `O=C(NCc1ccncc1)Nc1ccc(S(=O)(=O)c2ccc(O)nc2)cc1` [1-[4-(6-Hydroxy-pyridine-3-sulfonyl)-phenyl]-3-pyridin-4-ylmethyl-urea], for which, for the setting “Table B-6”, the EC50 fell in the range of 100 to 2000 nM.

`COc1ccc(S(=O)(=O)c2ccc(NC(=O)NCc3cnco3)cc2)cn1` [1-[4-(6-Methoxy-pyridine-3-sulfonyl)-phenyl]-3-oxazol-5-ylmethyl-urea] registered an EC50 (Table B-5) of 100 to 2000 nM.

For the setting “Table B-6”, `COc1ccc(S(=O)(=O)c2ccc(NC(=O)NCc3ccncc3)cc2)cn1` [1-[4-(6-Methoxy-pyridine-3-sulfonyl)-phenyl]-3-pyridin-4-ylmethyl-urea] registered an EC50 of 100 to 2000 nM.

As for `Cc1ccc(S(=O)(=O)c2ccc(NC(=O)NCc3cn[nH]c3)cc2)cn1` [1-[4-(6-Methyl-pyridine-3-sulfonyl)-phenyl]-3-(1H-pyrazol-4-ylmethyl)-urea], the concentration giving a half-maximal response (EC50) (Table B-4) lay within 100 to 2000 nM.

`Cc1ccc(S(=O)(=O)c2ccc(NC(=O)NCc3cnco3)cc2)cn1` [1-[4-(6-Methyl-pyridine-3-sulfonyl)-phenyl]-3-oxazol-5-ylmethyl-urea] registered an EC50 (Table B-5) of 100 to 2000 nM.

Compound `Cc1ccc(S(=O)(=O)c2ccc(NC(=O)NCc3ccncc3)cc2)cn1` [1-[4-(6-Methyl-pyridine-3-sulfonyl)-phenyl]-3-pyridin-4-ylmethyl-urea] gave an EC50 (Table B-6) of 100 to 2000 nM.

Take `O=C(NCc1ccncc1)Nc1ccc(S(=O)(=O)N2CCc3cccc(Cl)c3C2)cc1` [1-[4-(8-Chloro-3,4-dihydro-1H-isoquinoline-2-sulfonyl)-phenyl]-3-pyridin-4-ylmethyl-urea]: for the setting “Table B-2”, the EC50 was below 100 nM.

Regarding `O=C(NCc1ccncc1)Nc1ccc(S(=O)(=O)N2CCc3cccc(F)c3C2)cc1` [1-[4-(8-Fluoro-3,4-dihydro-1H-isoquinoline-2-sulfonyl)-phenyl]-3-pyridin-4-ylmethyl-urea], under “Table B-2”, the EC50 is below 100 nM.

Consider `Cc1cccc2c1CN(S(=O)(=O)c1ccc(NC(=O)NCc3ccncc3)cc1)CC2` [1-[4-(8-Methyl-3,4-dihydro-1H-isoquinoline-2-sulfonyl)-phenyl]-3-pyridin-4-ylmethyl-urea], for which the EC50 (Table B-2) was below 100 nM.

`O=C(NCc1cn[nH]c1)Nc1ccc(S(=O)(=O)N2CC3CCC(C2)O3)cc1` [1-[4-(8-Oxa-3-aza-bicyclo[3.2.1]octane-3-sulfonyl)-phenyl]-3-(1H-pyrazol-4-ylmethyl)-urea]: where the note is “Table B-1”, the EC50 is 100 to 2000 nM.

The compound `O=C(NCc1ccccn1)Nc1ccc(S(=O)(=O)N2CC3CCC(C2)O3)cc1` [1-[4-(8-Oxa-3-aza-bicyclo[3.2.1]octane-3-sulfonyl)-phenyl]-3-pyridin-2-ylmethyl-urea] showed a concentration for a half-maximal effect (EC50) (Table B-3) above 20000 nM.

For the compound `O=C(NCc1ccncc1)Nc1ccc(S(=O)(=O)N2CC3CCC(C2)O3)cc1` [1-[4-(8-Oxa-3-aza-bicyclo[3.2.1]octane-3-sulfonyl)-phenyl]-3-pyridin-4-ylmethyl-urea], the EC50 (Table B-2) lay in the range of 100 to 2000 nM.

Turning to `O=C(NCc1ccncc1)Nc1ccc(Nc2nc3ccccc3s2)cc1` [1-[4-(Benzothiazol-2-ylamino)-phenyl]-3-pyridin-4-ylmethyl-urea], the EC50 (Table B-6) lay within 5000 to 20000 nM.

Take `O=C(NCc1ccncc1)Nc1ccc(S(=O)(=O)N2CCOCC2)cc1` [1-[4-(Morpholine-4-sulfonyl)-phenyl]-3-pyridin-4-ylmethyl-urea]: the EC50 (Table B-2) fell in the range of 100 to 2000 nM.

Regarding `O=C(NCc1ccncc1)Nc1ccc(S(=O)(=O)N2CCNCC2)cc1` [1-[4-(Piperazine-1-sulfonyl)-phenyl}-3-pyridin-4-ylmethyl-urea], the EC50 (Table B-2) lay within 5000 to 20000 nM.

For `O=C(NCc1ccncc1)Nc1ccc(S(=O)(=O)N2CCCCC2)cc1` [1-[4-(Piperidine-1-sulfonyl)-phenyl]-3-pyridin-4-ylmethyl-urea], the EC50 (Table B-2) lay within 100 to 2000 nM.

Under “Table B-4”, `O=C(NCc1cn[nH]c1)Nc1ccc(S(=O)(=O)c2cnccn2)cc1` [1-[4-(Pyrazine-2-sulfonyl)-phenyl]-3-(1H-pyrazol-4-ylmethyl)-urea] showed an EC50 of 100 to 2000 nM.

Under “Table B-6”, `O=C(NCc1ccncc1)Nc1ccc(S(=O)(=O)c2cnccn2)cc1` [1-[4-(Pyrazine-2-sulfonyl)-phenyl]-3-pyridin-4-ylmethyl-urea] showed an EC50 of 100 to 2000 nM.

The compound `O=C(NCc1ccncc1)Nc1ccc(S(=O)(=O)c2cccnc2)cc1` [1-[4-(Pyridine-3-sulfonyl)-phenyl]-3-pyridin-4-ylmethyl-urea] gave an EC50 (Table B-6) of 100 to 2000 nM.

For `CCOC(=O)c1ccc2c(cnn2C(=O)NCc2ccncc2)c1` [1-[(Pyridin-4-ylmethyl)-carbamoyl]-1H-indazole-5-carboxylic acid ethyl ester], the EC50 (Table B-3) is above 20000 nM.

The compound `O=C(NCc1cn[nH]c1)Nc1ccc(Nc2nc(-c3ccccc3Cl)cs2)cc1` [1-{4-[4-(2-Chloro-phenyl)-thiazol-2-ylamino]-phenyl}-3-(1H-pyrazol-4-ylmethyl)-urea] gave an EC50 (Table B-4) of 5000 to 20000 nM.

`O=C(NCc1cn[nH]c1)Nc1ccc(Nc2nc(-c3ccccc3F)cs2)cc1` [1-{4-[4-(2-Fluoro-phenyl)-thiazol-2-ylamino]-phenyl}-3-(1H-pyrazol-4-ylmethyl)-urea] registered an EC50 (Table B-4) of 100 to 2000 nM.

For `O=C(NCc1cn[nH]c1)Nc1ccc(Nc2nc(-c3cccc(Cl)c3)cs2)cc1` [1-{4-[4-(3-Chloro-phenyl)-thiazol-2-ylamino]-phenyl}-3-(1H-pyrazol-4-ylmethyl)-urea], the EC50 (Table B-4) was in the range of 2000 to 5000 nM.

In general, EC50 refers to the concentration that produces a half-maximal response. A high value points to lower potency in that assay.
